This passage reports IC50 results from US20240398811A1, “PRC2 INHIBITORS FOR USE IN TREATING BLOOD DISORDERS” (ORIC Pharmaceuticals, Inc., priority 2021, published 2024).

Molecules are shown by their SMILES. Bounds are passed on as bounds.

Sequence of purified human, His-tagged PRC2 complex (O75530 whole entry): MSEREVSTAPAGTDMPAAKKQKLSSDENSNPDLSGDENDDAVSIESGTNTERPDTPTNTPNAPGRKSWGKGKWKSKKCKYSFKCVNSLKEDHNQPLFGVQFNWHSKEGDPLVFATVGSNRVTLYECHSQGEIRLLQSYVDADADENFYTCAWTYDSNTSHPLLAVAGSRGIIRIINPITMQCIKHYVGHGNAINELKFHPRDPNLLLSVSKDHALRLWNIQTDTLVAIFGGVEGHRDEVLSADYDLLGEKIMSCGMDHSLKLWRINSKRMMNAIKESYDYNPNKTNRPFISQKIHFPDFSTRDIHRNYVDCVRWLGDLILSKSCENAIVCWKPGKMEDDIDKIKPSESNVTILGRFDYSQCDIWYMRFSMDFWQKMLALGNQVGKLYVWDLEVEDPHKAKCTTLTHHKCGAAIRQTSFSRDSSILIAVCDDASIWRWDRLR
Sequence of purified human, His-tagged PRC2 complex (Q15910 whole entry partner): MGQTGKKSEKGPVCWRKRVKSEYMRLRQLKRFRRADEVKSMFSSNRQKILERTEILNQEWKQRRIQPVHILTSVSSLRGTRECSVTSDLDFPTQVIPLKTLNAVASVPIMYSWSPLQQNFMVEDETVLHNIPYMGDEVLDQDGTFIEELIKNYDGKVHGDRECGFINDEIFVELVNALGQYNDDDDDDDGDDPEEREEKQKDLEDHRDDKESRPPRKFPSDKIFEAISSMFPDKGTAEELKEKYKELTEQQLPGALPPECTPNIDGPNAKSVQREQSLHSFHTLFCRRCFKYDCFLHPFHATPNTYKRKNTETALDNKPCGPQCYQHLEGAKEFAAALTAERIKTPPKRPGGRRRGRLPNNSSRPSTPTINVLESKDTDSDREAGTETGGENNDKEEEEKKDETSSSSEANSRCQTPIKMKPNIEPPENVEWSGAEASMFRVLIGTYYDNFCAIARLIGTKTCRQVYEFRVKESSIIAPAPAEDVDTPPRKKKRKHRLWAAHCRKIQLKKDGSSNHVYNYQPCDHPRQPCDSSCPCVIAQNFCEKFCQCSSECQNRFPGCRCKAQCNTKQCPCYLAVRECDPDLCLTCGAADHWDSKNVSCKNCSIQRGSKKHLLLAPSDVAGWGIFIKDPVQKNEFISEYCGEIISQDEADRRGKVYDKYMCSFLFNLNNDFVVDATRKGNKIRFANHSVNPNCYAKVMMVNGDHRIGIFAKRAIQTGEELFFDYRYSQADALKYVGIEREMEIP
Sequence of purified human, His-tagged PRC2 complex (Q15022 whole entry partner): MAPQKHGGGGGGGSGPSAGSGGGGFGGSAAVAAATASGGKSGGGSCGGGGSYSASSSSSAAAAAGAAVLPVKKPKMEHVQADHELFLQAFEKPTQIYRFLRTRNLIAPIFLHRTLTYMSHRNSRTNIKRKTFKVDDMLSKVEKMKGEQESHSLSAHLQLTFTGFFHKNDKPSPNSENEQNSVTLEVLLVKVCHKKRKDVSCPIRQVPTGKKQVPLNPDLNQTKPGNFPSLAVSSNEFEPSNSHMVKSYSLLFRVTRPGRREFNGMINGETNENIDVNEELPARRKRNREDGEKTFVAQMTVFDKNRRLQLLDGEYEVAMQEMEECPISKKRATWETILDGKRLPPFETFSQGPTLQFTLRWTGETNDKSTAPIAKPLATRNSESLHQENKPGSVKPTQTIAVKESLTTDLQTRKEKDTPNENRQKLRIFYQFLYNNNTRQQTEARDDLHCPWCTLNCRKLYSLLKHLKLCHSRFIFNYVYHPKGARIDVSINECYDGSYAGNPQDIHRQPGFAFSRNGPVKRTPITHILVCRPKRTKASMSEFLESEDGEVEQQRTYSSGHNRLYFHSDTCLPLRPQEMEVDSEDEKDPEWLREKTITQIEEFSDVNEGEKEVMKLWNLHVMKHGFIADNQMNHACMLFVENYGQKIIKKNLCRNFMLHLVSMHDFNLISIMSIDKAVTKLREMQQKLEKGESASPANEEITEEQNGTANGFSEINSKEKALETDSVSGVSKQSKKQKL
Sequence of purified human, His-tagged PRC2 complex (Q6ZN18 whole entry partner): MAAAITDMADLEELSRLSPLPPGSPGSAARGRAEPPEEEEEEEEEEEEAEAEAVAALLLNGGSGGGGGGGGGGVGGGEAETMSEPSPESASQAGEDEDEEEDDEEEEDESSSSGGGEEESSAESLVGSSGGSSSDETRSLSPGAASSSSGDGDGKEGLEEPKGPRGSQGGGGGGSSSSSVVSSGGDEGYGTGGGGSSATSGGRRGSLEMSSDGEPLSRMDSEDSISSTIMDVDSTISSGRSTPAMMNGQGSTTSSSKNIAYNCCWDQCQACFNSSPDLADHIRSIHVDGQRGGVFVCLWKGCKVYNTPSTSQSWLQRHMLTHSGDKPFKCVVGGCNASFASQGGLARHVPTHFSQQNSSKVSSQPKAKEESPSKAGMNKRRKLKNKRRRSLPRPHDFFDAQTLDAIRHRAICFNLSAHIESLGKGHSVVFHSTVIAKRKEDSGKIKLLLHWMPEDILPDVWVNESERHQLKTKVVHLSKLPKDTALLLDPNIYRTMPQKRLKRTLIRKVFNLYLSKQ
Sequence of purified human, His-tagged PRC2 complex (Q09028 whole entry partner): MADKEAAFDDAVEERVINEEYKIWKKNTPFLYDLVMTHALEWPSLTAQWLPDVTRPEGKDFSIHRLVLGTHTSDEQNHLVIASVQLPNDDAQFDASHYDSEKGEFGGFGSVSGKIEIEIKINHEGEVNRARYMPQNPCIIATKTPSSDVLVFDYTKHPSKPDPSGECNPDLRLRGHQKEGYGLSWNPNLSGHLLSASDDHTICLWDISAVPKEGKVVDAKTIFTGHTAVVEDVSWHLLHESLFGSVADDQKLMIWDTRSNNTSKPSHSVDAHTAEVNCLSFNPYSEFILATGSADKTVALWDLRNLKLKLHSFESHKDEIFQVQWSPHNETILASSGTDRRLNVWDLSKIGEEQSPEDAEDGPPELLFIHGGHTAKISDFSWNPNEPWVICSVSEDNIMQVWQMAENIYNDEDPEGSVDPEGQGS

The target in the test is purified human, His-tagged PRC2 complex (Homo sapiens (Human), UniProt O75530). The experiment in a line: Hot Spot HMT assay, inhibition of PRC2 enzymatic activity. The test is classed as biochemical. The note with it: 10 nM PRC2 complex, 1 μM 3H-SAM, core histone H3, 10-point dose-response. The text has this:
The assay uses purified human, His-tagged PRC2 complex, including N-terminal His-tagged EZH2 enzyme, N-terminal Flag-tagged embryonic ectoderm development protein (EED), N-terminal His-tagged suppressor of zeste 12 (SUZ12), N-terminal His-tagged AEBP2, and N-terminal His-tagged RbAp48. In this assay, the transfer of the tritiated methyl group from radiolabeled S-adenosyl methionine (SAM) to purified core histone protein by EZH2 is quantitated after filtration to determine the activity of the core PRC2 complex in the presence and absence of compound.
The initial starting concentration for the serial dilutions of each compound was 1.0 μM. […] SAH (S-(5-adenosyl)-L-homocysteine) was used as a positive control for assay validation.
An aliquot of each serial dilution of test compound was added to deep 384 well plate using Acoustic Technology instrument (Echo 550, LabCyte) containing reaction buffer (50 mM Tris-HCl (pH 8.)), 0.01% Brij35, 1 mM EDTA, 1 mM DTT, 1 mM PMSF and 1% DMSO), 10 nM purified PRC2 complex and 0.05 mg/ml core histone H3 in a 5 μl volume. The reaction was mixed gently and then pre-incubated for 20 min at 30° C. The enzymatic reaction was initiated by adding 1 μM S-Adenosyl-L-[methyl-^3H]methionine and incubated for 1 hr at 30° C. After 1 hr, the reaction product was detected using a filter binding method and the amount of tritiated H3 core histone was quantitated using a scintillation counter. […] Key: A=<100 nM; B=>100 nM-<500 nM; and C=>500 nM.
As for `N#Cc1cn2c(NCc3c(F)ccc4c3CCO4)ncc(-c3ccc(CN4CC5CC5C4)cc3)c2n1` (stereo not drawn) [Example 52, 8-(4-((3-azabicyclo[3.1.0]hexan-3-yl)methyl)phenyl)-5-(((5-fluoro-2,3-dihydrobenzofuran-4-yl)methyl)amino)imidazo[1,2-c]pyrimidine-2-carbonitrile], the half-maximal inhibitory concentration (IC50) was below 100 nM.

Molecule `COC1CCN(Cc2ccc(-c3cnc(NCc4c(F)ccc5c4CCO5)n4cc(C#N)nc34)cc2)C1` (stereo not drawn) [Example 53, 5-(((5-fluoro-2,3-dihydrobenzofuran-4-yl)methyl)amino)-8-(4-((3-methoxypyrrolidin-1-yl)methyl)phenyl)imidazo[1,2-c]pyrimidine-2-carbonitrile] returned an IC50 below 100 nM.

In turn, `N#Cc1cn2c(NCc3c(F)ccc4c3CCO4)ncc(-c3ccc(CN4CCC(F)C4)cc3)c2n1` (stereo not drawn) [Example 54, 5-(((5-fluoro-2,3-dihydrobenzofuran-4-yl)methyl)amino)-8-(4-((3-fluoropyrrolidin-1-yl)methyl)phenyl)imidazo[1,2-c]pyrimidine-2-carbonitrile] gave an IC50 below 100 nM.

In the case of `N#Cc1cn2c(NCc3c(F)ccc4c3CCO4)ncc(-c3ccc(CN4CCC(F)(F)C4)cc3)c2n1` [Example 55, 8-(4-((3,3-difluoropyrrolidin-1-yl)methyl)phenyl)-5-(((5-fluoro-2,3-dihydrobenzofuran-4-yl)methyl)amino)imidazo[1,2-c]pyrimidine-2-carbonitrile], the IC50 is below 100 nM.

On to `Cc1nc(N2CCOCC2)ccc1-c1cnc(NCc2c(F)ccc3c2CCO3)n2cc(C#N)nc12` [Example 56, 5-(((5-fluoro-2,3-dihydrobenzofuran-4-yl)methyl)amino)-8-(2-methyl-6-morpholinopyridin-3-yl)imidazo[1,2-c]pyrimidine-2-carbonitrile], for which the half-maximal inhibitory concentration (IC50) was below 100 nM.

Consider `N#Cc1cn2c(NCc3c(F)ccc4c3CCO4)ncc(-c3ccncn3)c2n1` [Example 57, 5-(((5-fluoro-2,3-dihydrobenzofuran-4-yl)methyl)amino)-8-(pyrimidin-4-yl)imidazo[1,2-c]pyrimidine-2-carbonitrile], for which the IC50 is below 100 nM.

`CN(C)S(=O)(=O)c1ccc(-c2cnc(NCc3c(F)ccc4c3CCO4)n3cc(C#N)nc23)cc1` [Example 58, 4-(2-cyano-5-(((5-fluoro-2,3-dihydrobenzofuran-4-yl)methyl)amino)imidazo[1,2-c]pyrimidin-8-yl)-N,N-dimethylbenzenesulfonamide] yielded an IC50 below 100 nM.

The molecule `CNS(=O)(=O)c1ccc(-c2cnc(NCc3c(F)ccc4c3CCO4)n3cc(C#N)nc23)cc1` [Example 59, 4-(2-cyano-5-(((5-fluoro-2,3-dihydrobenzofuran-4-yl)methyl)amino)imidazo[1,2-c]pyrimidin-8-yl)-N-methylbenzenesulfonamide] had an IC50 below 100 nM.

`CN(C)c1ccc(-c2cnc(NCc3c(F)ccc4c3CCO4)n3cc(C#N)nc23)cn1` [Example 60, 8-(6-(dimethylamino)pyridin-3-yl)-5-(((5-fluoro-2,3-dihydrobenzofuran-4-yl)methyl)amino)imidazo[1,2-c]pyrimidine-2-carbonitrile] returned an IC50 of 100 to 500 nM.

Turning to `CN(C)Cc1ccc(-c2cnc(NCc3c(F)ccc4c3CCO4)n3cc(C#N)nc23)c(F)c1` [Example 61, 8-(4-((dimethylamino)methyl)-2-fluorophenyl)-5-(((5-fluoro-2,3-dihydrobenzofuran-4-yl)methyl)amino)imidazo[1,2-c]pyrimidine-2-carbonitrile], the IC50 was below 100 nM.

On to `Cc1ncc(F)cc1-c1cnc(NCc2c(F)ccc3c2CCO3)n2cc(C#N)nc12` [Example 62, 5-(((5-fluoro-2,3-dihydrobenzofuran-4-yl)methyl)amino)-8-(5-fluoro-2-methylpyridin-3-yl)imidazo[1,2-c]pyrimidine-2-carbonitrile], for which the IC50 is below 100 nM.

In turn, `CN(C)Cc1ccc(-c2cnc(NCc3c(F)ccc4c3CCO4)n3cc(C#N)nc23)cc1F` [Example 63, 8-(4-((dimethylamino)methyl)-3-fluorophenyl)-5-(((5-fluoro-2,3-dihydrobenzofuran-4-yl)methyl)amino)imidazo[1,2-c]pyrimidine-2-carbonitrile] gave an IC50 below 100 nM.

In turn, `N#Cc1cn2c(NCc3c(F)ccc4c3CCO4)ncc(-c3cccnc3C(F)F)c2n1` [Example 64, 8-(2-(difluoromethyl)pyridin-3-yl)-5-(((5-fluoro-2,3-dihydrobenzofuran-4-yl)methyl)amino)imidazo[1,2-c]pyrimidine-2-carbonitrile] registered a half-inhibitory concentration (IC50) below 100 nM.

The molecule `Cc1nn(C[C@H](C)O)c(C)c1-c1cnc(NCc2c(F)ccc3c2CCO3)n2cc(C#N)nc12` [Example 65, (S)-5-(((5-fluoro-2,3-dihydrobenzofuran-4-yl)methyl)amino)-8-(1-(2-hydroxypropyl)-3,5-dimethyl-1H-pyrazol-4-yl)imidazo[1,2-c]pyrimidine-2-carbonitrile] registered an IC50 of 100 to 500 nM.

On to `Cc1nn(C[C@@H](C)O)c(C)c1-c1cnc(NCc2c(F)ccc3c2CCO3)n2cc(C#N)nc12` [Example 66, (R)-5-(((5-fluoro-2,3-dihydrobenzofuran-4-yl)methyl)amino)-8-(1-(2-hydroxypropyl)-3,5-dimethyl-1H-pyrazol-4-yl)imidazo[1,2-c]pyrimidine-2-carbonitrile], for which the half-maximal inhibitory concentration (IC50) lay in the range of 100 to 500 nM.

`Cc1ccc(-c2cnc(NCc3c(F)ccc4c3CCO4)n3cc(C#N)nc23)c(C)n1` [Example 67, 8-(2,6-dimethylpyridin-3-yl)-5-(((5-fluoro-2,3-dihydrobenzofuran-4-yl)methyl)amino)imidazo[1,2-c]pyrimidine-2-carbonitrile] had an IC50 below 100 nM.

Molecule `N#Cc1cn2c(NCc3c(F)ccc4c3CCO4)ncc(-c3cnccn3)c2n1` [Example 68, 5-(((5-fluoro-2,3-dihydrobenzofuran-4-yl)methyl)amino)-8-(pyrazin-2-yl)imidazo[1,2-c]pyrimidine-2-carbonitrile] came in with an IC50 below 100 nM.

Take `Cc1ncc(-c2cnc(NCc3c(F)ccc4c3CCO4)n3cc(C#N)nc23)cn1` [Example 69, 5-(((5-fluoro-2,3-dihydrobenzofuran-4-yl)methyl)amino)-8-(2-methylpyrimidin-5-yl)imidazo[1,2-c]pyrimidine-2-carbonitrile]: the IC50 was below 100 nM.

`Cc1ncc(-c2cnc(NCc3c(F)ccc4c3CCO4)n3cc(C#N)nc23)c(C)n1` [Example 71, 8-(2,4-dimethylpyrimidin-5-yl)-5-(((5-fluoro-2,3-dihydrobenzofuran-4-yl)methyl)amino)imidazo[1,2-c]pyrimidine-2-carbonitrile]: the IC50 was below 100 nM.

The molecule `Cc1nn(C)cc1-c1cnc(NCc2c(F)ccc3c2CCO3)n2cc(C#N)nc12` [Example 72, 8-(1,3-dimethyl-1H-pyrazol-4-yl)-5-(((5-fluoro-2,3-dihydrobenzofuran-4-yl)methyl)amino)imidazo[1,2-c]pyrimidine-2-carbonitrile] displayed an IC50 below 100 nM.

For the molecule `CS(=O)(=O)c1ccc(-c2cnc(NCc3c(F)ccc4c3CCO4)n3cc(C#N)nc23)cc1` [Example 73, 5-(((5-fluoro-2,3-dihydrobenzofuran-4-yl)methyl)amino)-8-(4-(methylsulfonyl)phenyl)imidazo[1,2-c]pyrimidine-2-carbonitrile], the IC50 is below 100 nM.

As to `N#Cc1cn2c(NCc3c(F)ccc4c3CCO4)ncc(-c3ccc(CN4CCCC4)cc3)c2n1` [Example 74, 5-(((5-fluoro-2,3-dihydrobenzofuran-4-yl)methyl)amino)-8-(4-(pyrrolidin-1-ylmethyl)phenyl)imidazo[1,2-c]pyrimidine-2-carbonitrile], the concentration for half-maximal inhibition (IC50) was below 100 nM.

Consider `N#Cc1cn2c(NCc3c(F)ccc4c3CCO4)ncc(-c3ccc(CN4CCOCC4)cc3)c2n1` [Example 75, 5-(((5-fluoro-2,3-dihydrobenzofuran-4-yl)methyl)amino)-8-(4-(morpholinomethyl)phenyl)imidazo[1,2-c]pyrimidine-2-carbonitrile], for which the IC50 was below 100 nM.

Regarding `Cc1cc(C(=O)N(C)C)ncc1-c1cnc(NCc2c(F)ccc3c2CCO3)n2cc(C#N)nc12` [Example 76, 5-(2-cyano-5-(((5-fluoro-2,3-dihydrobenzofuran-4-yl)methyl)amino)imidazo[1,2-c]pyrimidin-8-yl)-N,N,4-trimethylpicolinamide], the IC50 was below 100 nM.

The molecule `N#Cc1cn2c(NCc3c(F)ccc4c3CCO4)ncc(C3CC3)c2n1` [Example 77, 8-cyclopropyl-5-(((5-fluoro-2,3-dihydrobenzofuran-4-yl)methyl)amino)imidazo[1,2-c]pyrimidine-2-carbonitrile] gave a half-maximal inhibitory concentration (IC50) of 100 to 500 nM.

In turn, `Cc1n[nH]cc1-c1cnc(NCc2c(F)ccc3c2CCO3)n2cc(C#N)nc12` [Example 79, 5-(((5-fluoro-2,3-dihydrobenzofuran-4-yl)methyl)amino)-8-(3-methyl-1H-pyrazol-4-yl)imidazo[1,2-c]pyrimidine-2-carbonitrile] registered an IC50 below 100 nM.

For `N#Cc1cn2c(NCc3c(F)ccc4c3CCO4)ncc(-c3cnn4c3CCC4)c2n1` [Example 80, 8-(5,6-dihydro-4H-pyrrolo[1,2-b]pyrazol-3-yl)-5-(((5-fluoro-2,3-dihydrobenzofuran-4-yl)methyl)amino)imidazo[1,2-c]pyrimidine-2-carbonitrile], the IC50 was below 100 nM.
